# How the values were obtained:
# Assay type in all cases: physicochemical
# [1] = Chemical stability in solid state, accelerated test at 60° C.
# [2] = Chemical stability in aqueous state, 25° C., 4 weeks in the dark, HPLC; conditions: distilled water
# Protocol: The resulting aqueous solutions were stored at 25° C. for 4 weeks in the dark, after which a measurement was made of the contents of the salts with resort to HPLC under the same conditions as in the solid state.
# [3] = Solubility in various solvents at 37° C.; conditions: aqueous buffer, ionic strength 0.2, 37° C., based on the weight of amlodipine
# [4] = Light stability, 4 weeks at 25° C. with exposure to daylight, HPLC
# Excerpt: A measurement was made of the contents of the salts with resort to HPLC under the same conditions as in the chemical stability test.
SMILES,"Content, storage period 1 week ([1]; 1 week) [%]","Content, storage period 2 weeks ([1]; 2 weeks) [%]","Content, storage period 4 weeks ([1]; 4 weeks) [%]","Content, storage period initial ([1]; initial) [%]",Degraded impurity / content change in aqueous solution [2],solubility ([3]; pH 3 buffer) [µg/mL],solubility ([3]; pH 4 buffer) [µg/mL],solubility ([3]; pH 6 buffer) [µg/mL],solubility ([3]; pH 7 buffer) [µg/mL],solubility ([3]; pH 8 buffer) [µg/mL],"Color change on light exposure ([4]; 4 weeks, 25° C., daylight)","Content (HPLC), Stored 4 weeks, 25° C. daylight ([4]; 4 weeks, 25° C., daylight) [%]","Content (HPLC), Initial [4] [%]"
"CCOC(=O)C1=C(COCCN)NC(C)=C(C(=O)OC)C1c1ccccc1Cl (stereo not drawn) [Besylate, Amlodipine Besylate]",99.6,99.4,99.2,99.6,neither degraded impurity nor content change was found,3250,3150,3190,1590,1390,turned yellow from white,82.5,99.2
"CCOC(=O)C1=C(COCCN)NC(C)=C(C(=O)OC)C1c1ccccc1Cl.Cc1ccc(S(=O)(=O)O)cc1 (stereo not drawn) [Tosylate, Amlodipine Para-toluenesulfonate]",,,,,,,,,,,,72.0,99.2

# Source: patent publication US6756390B2, “Organic acid salt of amlodipine” (CJ Corp., priority 2002, dated 2004)
